Measurements from patent US11987588B2, “Modulators of the beta-3 adrenergic receptor useful for the treatment or prevention of heart failure and disorders related thereto” (Arena Pharmaceuticals, Inc., priority 2017, dated 2024).

Biological target: Beta-3 Adrenergic Receptor (Homo sapiens (Human), UniProt P13945)
Test: Homogeneous Time-Resolved Fluorescence (HTRF) cAMP antagonist assay, IC50 determination
Format: cell-based
Conditions: CHO-K1 cells stably expressing recombinant receptor, isoproterenol at EC90
Outline: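 Antagonist mode: isoproterenol at its predetermined EC90 added after compound to recombinant CHO-K1 cells in IBMX-containing PBS, 1 h, room temperature. Compounds tested as 5-fold, 10-point dilutions, top final typically 10 or 100 μM. HTRF signal converted to cAMP via standard curve, giving IC50.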

Chain of Beta-3 Adrenergic Receptor (P13945 whole entry, species assumed): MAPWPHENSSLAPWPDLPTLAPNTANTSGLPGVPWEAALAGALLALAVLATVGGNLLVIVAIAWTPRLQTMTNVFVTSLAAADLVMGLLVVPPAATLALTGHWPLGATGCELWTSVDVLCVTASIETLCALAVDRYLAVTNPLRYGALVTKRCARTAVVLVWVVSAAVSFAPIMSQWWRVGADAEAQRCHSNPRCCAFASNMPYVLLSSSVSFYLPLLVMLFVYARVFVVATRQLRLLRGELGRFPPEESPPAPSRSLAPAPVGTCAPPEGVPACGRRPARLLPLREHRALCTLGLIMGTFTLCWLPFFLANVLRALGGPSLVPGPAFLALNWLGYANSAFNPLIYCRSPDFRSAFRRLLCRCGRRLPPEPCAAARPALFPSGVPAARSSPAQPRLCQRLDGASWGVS

Row | IC50 | Compound
1 | 0.0192 µM | NS(=O)(=O)c1cccc(OC[C@@H](O)CN[C@H]2COC3(CCN(S(=O)(=O)c4ccc5ccccc5c4)CC3)C2)c1 [Compound 560, 3-((S)-2-hydroxy-3-((R)-8-(naphthalen-2-ylsulfonyl)-1-oxa-8-azaspiro[4.5]decan-3-ylamino)propoxy)benzenesulfonamide]
2 | 0.429 µM | CNS(=O)(=O)c1cccc(OC[C@@H](O)CN[C@H]2COC3(CCN(c4ccccn4)CC3)C2)c1 [Compound 561, 3-((S)-2-hydroxy-3-((R)-8-(pyridin-2-yl)-1-oxa-8-azaspiro[4.5]decan-3-ylamino)propoxy)-N-methylbenzenesulfonamide]
3 | 0.0163 µM | NS(=O)(=O)c1cccc(OC[C@@H](O)CN[C@H]2COC3(CCN(S(=O)(=O)c4cnc5ccccc5c4)CC3)C2)c1 [Compound 562, 3-((S)-2-hydroxy-3-((R)-8-(quinolin-3-ylsulfonyl)-1-oxa-8-azaspiro[4.5]decan-3-ylamino)propoxy)benzenesulfonamide]
4 | 0.0264 µM | NS(=O)(=O)c1cccc(OC[C@@H](O)CN[C@@H]2COC3(CCN(S(=O)(=O)c4cnc5cc[nH]c5c4)CC3)C2)c1 [Compound 563, 3-((S)-3-((S)-8-(1H-pyrrolo[3,2-b]pyridin-6-ylsulfonyl)-1-oxa-8-azaspiro[4.5]decan-3-ylamino)-2-hydroxypropoxy)benzenesulfonamide]
5 | 0.027 µM | Cc1n[nH]c2ncc(S(=O)(=O)N3CCC4(CC3)C[C@@H](NC[C@H](O)COc3cccc(S(N)(=O)=O)c3)CO4)cc12 [Compound 564, 3-((S)-2-hydroxy-3-((R)-8-(3-methyl-1H-pyrazolo[3,4-b]pyridin-5-ylsulfonyl)-1-oxa-8-azaspiro[4.5]decan-3-ylamino)propoxy)benzenesulfonamide]
6 | 0.0512 µM | NS(=O)(=O)c1cccc(OC[C@@H](O)CN[C@H]2COC3(CCN(S(=O)(=O)c4ccc5c(c4)CCCO5)CC3)C2)c1 [Compound 565, 3-((S)-3-((R)-8-(chroman-6-ylsulfonyl)-1-oxa-8-azaspiro[4.5]decan-3-ylamino)-2-hydroxypropoxy)benzenesulfonamide]
7 | 0.0786 µM | NS(=O)(=O)c1cccc(OC[C@@H](O)CN[C@H]2COC3(CCN(S(=O)(=O)c4ccc5ncccc5c4)CC3)C2)c1 [Compound 566, 3-((S)-2-hydroxy-3-((R)-8-(quinolin-6-ylsulfonyl)-1-oxa-8-azaspiro[4.5]decan-3-ylamino)propoxy)benzenesulfonamide]
8 | 0.0179 µM | CCOc1ccc(-c2ccc(CN)cc2)cc1S(=O)(=O)N1CCC2(CC1)C[C@@H](NC[C@H](O)COc1cccc(S(N)(=O)=O)c1)CO2 [Compound 567, 3-((S)-3-((R)-8-(4′-(aminomethyl)-4-ethoxybiphenyl-3-ylsulfonyl)-1-oxa-8-azaspiro[4.5]decan-3-ylamino)-2-hydroxypropoxy)benzenesulfonamide]
9 | 0.411 µM | CNS(=O)(=O)c1cccc(OC[C@@H](O)CN[C@H]2COC3(CCN(c4nccc(OC)n4)CC3)C2)c1 [Compound 568, 3-((S)-2-hydroxy-3-((R)-8-(4-methoxypyrimidin-2-yl)-1-oxa-8-azaspiro[4.5]decan-3-ylamino)propoxy)-N-methylbenzenesulfonamide]
10 | 0.427 µM | CNS(=O)(=O)c1cccc(OC[C@@H](O)CN[C@H]2COC3(CCN(c4nccc(N)n4)CC3)C2)c1 [Compound 569, 3-((S)-3-((R)-8-(4-aminopyrimidin-2-yl)-1-oxa-8-azaspiro[4.5]decan-3-ylamino)-2-hydroxypropoxy)-N-methylbenzenesulfonamide]
11 | 0.143 µM | CNS(=O)(=O)c1cccc(OC[C@@H](O)CN[C@H]2COC3(CCN(c4ncc(Cc5ccccc5)cn4)CC3)C2)c1 [Compound 570, 3-((S)-3-((R)-8-(5-benzylpyrimidin-2-yl)-1-oxa-8-azaspiro[4.5]decan-3-ylamino)-2-hydroxypropoxy)-N-methylbenzenesulfonamide]
12 | 0.237 µM | CCc1cnc(N2CCC3(CC2)C[C@@H](NC[C@H](O)COc2cccc(S(=O)(=O)NC)c2)CO3)nc1 [Compound 571, 3-((S)-3-((R)-8-(5-ethylpyrimidin-2-yl)-1-oxa-8-azaspiro[4.5]decan-3-ylamino)-2-hydroxypropoxy)-N-methylbenzenesulfonamide]
13 | 0.0656 µM | CNS(=O)(=O)c1cccc(OC[C@@H](O)CN[C@H]2COC3(CCN(c4nccc(-c5ccccc5)n4)CC3)C2)c1 [Compound 572, 3-((S)-2-hydroxy-3-((R)-8-(4-phenylpyrimidin-2-yl)-1-oxa-8-azaspiro[4.5]decan-3-ylamino)propoxy)-N-methylbenzenesulfonamide]
14 | 0.115 µM | CNS(=O)(=O)c1cccc(OC[C@@H](O)CN[C@H]2COC3(CCN(c4nccc(Cc5ccccc5)n4)CC3)C2)c1 [Compound 573, 3-((S)-3-((R)-8-(4-benzylpyrimidin-2-yl)-1-oxa-8-azaspiro[4.5]decan-3-ylamino)-2-hydroxypropoxy)-N-methylbenzenesulfonamide]
15 | 0.609 µM | CNS(=O)(=O)c1cccc(OC[C@@H](O)CN[C@H]2COC3(CCN(c4nccc(C(F)(F)F)n4)CC3)C2)c1 [Compound 574, 3-((S)-2-hydroxy-3-((R)-8-(4-(trifluoromethyl)pyrimidin-2-yl)-1-oxa-8-azaspiro[4.5]decan-3-ylamino)propoxy)-N-methylbenzenesulfonamide]
16 | 0.216 µM | CNS(=O)(=O)c1cccc(OC[C@@H](O)CN[C@H]2COC3(CCN(c4nccc(C)n4)CC3)C2)c1 [Compound 575, 3-((S)-2-hydroxy-3-((R)-8-(4-methylpyrimidin-2-yl)-1-oxa-8-azaspiro[4.5]decan-3-ylamino)propoxy)-N-methylbenzenesulfonamide]
17 | 0.528 µM | CNS(=O)(=O)c1cccc(OC[C@@H](O)CN[C@H]2COC3(CCN(c4ncccn4)CC3)C2)c1 [Compound 576, 3-((S)-2-hydroxy-3-((R)-8-(pyrimidin-2-yl)-1-oxa-8-azaspiro[4.5]decan-3-ylamino)propoxy)-N-methylbenzenesulfonamide]
18 | 0.102 µM | CNS(=O)(=O)c1cccc(OC[C@@H](O)CN[C@H]2COC3(CCN(c4nc(C)cc(C)n4)CC3)C2)c1 [Compound 577, 3-((S)-3-((R)-8-(4,6-dimethylpyrimidin-2-yl)-1-oxa-8-azaspiro[4.5]decan-3-ylamino)-2-hydroxypropoxy)-N-methylbenzenesulfonamide]
19 | 0.424 µM | CCCCCCCc1cnc(N2CCC3(CC2)C[C@@H](NC[C@H](O)COc2cccc(S(=O)(=O)NC)c2)CO3)nc1 [Compound 578, 3-((S)-3-((R)-8-(5-heptylpyrimidin-2-yl)-1-oxa-8-azaspiro[4.5]decan-3-ylamino)-2-hydroxypropoxy)-N-methylbenzenesulfonamide]
20 | 0.34 µM | CCCc1cnc(N2CCC3(CC2)C[C@@H](NC[C@H](O)COc2cccc(S(=O)(=O)NC)c2)CO3)nc1 [Compound 579, 3-((S)-2-hydroxy-3-((R)-8-(5-propylpyrimidin-2-yl)-1-oxa-8-azaspiro[4.5]decan-3-ylamino)propoxy)-N-methylbenzenesulfonamide]
21 | 0.262 µM | CNS(=O)(=O)c1cccc(OC[C@@H](O)CN[C@H]2COC3(CCN(c4ncc(-c5ccccc5)cn4)CC3)C2)c1 [Compound 580, 3-((S)-2-hydroxy-3-((R)-8-(5-phenylpyrimidin-2-yl)-1-oxa-8-azaspiro[4.5]decan-3-ylamino)propoxy)-N-methylbenzenesulfonamide]
22 | 0.788 µM | CNS(=O)(=O)c1cccc(OC[C@@H](O)CN[C@H]2COC3(CCN(c4ncc(C(=O)OC)cn4)CC3)C2)c1 [Compound 581, methyl 2-((R)-3-((S)-2-hydroxy-3-(3-(N-methylsulfamoyl)phenoxy)propylamino)-1-oxa-8-azaspiro[4.5]decan-8-yl)pyrimidine-5-carboxylate]
23 | 100 µM | CNS(=O)(=O)c1cccc(OC[C@@H](O)CN[C@H]2COC3(CCN(c4nccc(C(=O)O)n4)CC3)C2)c1 [Compound 582, 2-((R)-3-((S)-2-hydroxy-3-(3-(N-methylsulfamoyl)phenoxy)propylamino)-1-oxa-8-azaspiro[4.5]decan-8-yl)pyrimidine-4-carboxylic acid]
24 | 1.84 µM | CNS(=O)(=O)c1cccc(OC[C@@H](O)CN[C@H]2COC3(CCN(c4ncc(C(F)(F)F)cn4)CC3)C2)c1 [Compound 583, 3-((S)-2-hydroxy-3-((R)-8-(5-(trifluoromethyl)pyrimidin-2-yl)-1-oxa-8-azaspiro[4.5]decan-3-ylamino)propoxy)-N-methylbenzenesulfonamide]
25 | 0.266 µM | CNS(=O)(=O)c1cccc(OC[C@@H](O)CN[C@H]2COC3(CCN(c4nc(OC)cc(OC)n4)CC3)C2)c1 [Compound 584, 3-((S)-3-((R)-8-(4,6-dimethoxypyrimidin-2-yl)-1-oxa-8-azaspiro[4.5]decan-3-ylamino)-2-hydroxypropoxy)-N-methylbenzenesulfonamide]
26 | 0.202 µM | CNS(=O)(=O)c1cccc(OC[C@@H](O)CN[C@H]2COC3(CCN(c4cnc(C(F)(F)F)cn4)CC3)C2)c1 [Compound 585, 3-((S)-2-hydroxy-3-((R)-8-(5-(trifluoromethyl)pyrazin-2-yl)-1-oxa-8-azaspiro[4.5]decan-3-ylamino)propoxy)-N-methylbenzenesulfonamide]
27 | 0.762 µM | CNS(=O)(=O)c1cccc(OC[C@@H](O)CN[C@H]2COC3(CCN(c4cnccn4)CC3)C2)c1 [Compound 586, 3-((S)-2-hydroxy-3-((R)-8-(pyrazin-2-yl)-1-oxa-8-azaspiro[4.5]decan-3-ylamino)propoxy)-N-methylbenzenesulfonamide]
28 | 2.39 µM | CCn1ccc(=O)c(S(=O)(=O)N2CCC3(CC2)C[C@@H](NC[C@H](O)COc2cccc(S(N)(=O)=O)c2)CO3)c1 [Compound 587, 3-((S)-3-((R)-8-(1-ethyl-4-oxo-1,4-dihydropyridin-3-ylsulfonyl)-1-oxa-8-azaspiro[4.5]decan-3-ylamino)-2-hydroxypropoxy)benzenesulfonamide]
